From publication PMC10793205, “Differential transmetallation of complexes of the anti-cancer thiosemicarbazone, Dp4e4mT: effects on anti-proliferative efficacy, redox activity, oxy-myoglobin and oxy-hemoglobin oxidation” (Chemical Science, 2023)

Experiments:
[1] = molecular target: T1, oxy-Hb in intact human erythrocytes (Homo sapiens, UniProt P68871+P69905); assay: Oxidation of oxy-Hb in intact human erythrocytes; assay type: cell-based; details: 10 μM, 3 h/37 °C; for oxy-Hb oxidation to met-Hb in erythrocytes: control 0.5%
T1 construct: Physiologically, oxy-Hb is found in erythrocytes; endogenous in cells; host or cells: intact human erythrocytes from fresh blood of healthy donors
T1 sequence (P69905 2-142 limits assumed): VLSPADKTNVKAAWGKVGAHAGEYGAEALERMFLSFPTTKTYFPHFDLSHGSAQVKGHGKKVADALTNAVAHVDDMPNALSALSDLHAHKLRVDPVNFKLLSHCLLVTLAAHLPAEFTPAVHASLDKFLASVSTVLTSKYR
T1 sequence (P68871 2-147 limits assumed): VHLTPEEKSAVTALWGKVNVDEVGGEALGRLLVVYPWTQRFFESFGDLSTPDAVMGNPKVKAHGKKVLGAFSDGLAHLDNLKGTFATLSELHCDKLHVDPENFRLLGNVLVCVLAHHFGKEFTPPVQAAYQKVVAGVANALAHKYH
Experimental: Fig. 7 (A and B) Investigation of the effects of Dp4e4mT and its Fe(III), Co(III), Ni(II), Cu(II), Zn(II), Ga(III), and Pd(II) complexes versus DFO, Dp44mT, DpC and their Fe(III) complexes (10 μM) on met-Hb generation (% zero time) after an incubation of 1–3 h/20 °C with purified oxy-Hb (40 μM). (C) Investigation of the effects of Dp4e4mT and its Fe(III), Co(III), Ni(II), Cu(II), Zn(II), Ga(III), or Pd(II) complexes relative to the positive controls DFO, Dp44mT, DpC, and their Fe(III) complexes (10 μM) on oxy-Hb oxidation in intact human erythrocytes after a 3 h/37 °C incubation. Results are mean ± SD (3 experiments).
Physiologically, oxy-Hb is found in erythrocytes, and in the current investigation, the ligands and complexes (10 μM) were incubated with intact human erythrocytes for 3 h/37 °C to assess their effects on oxy-Hb oxidation (Fig. 7C). As expected from our previous studies,[28,39] […]
In experiments examining the activity of the agents, all complexes were dissolved in 1,2-propanediol, then diluted to 10 µM in PBS (pH 7.2). […]
1800; Shimadzu, Kyoto, Japan). Concentrations of met-Mb and met-Hb, as well as reduced-Mb and reduced-Hb, were determined at 409 nm and 435 nm, respectively. Concentrations of oxy-Mb and oxy-Hb were determined at 544 nm and 582 nm, respectively. 17 Oxidation of Oxy-Hb in Human Erythrocytes
Oxidation of oxy-Hb in human erythrocytes was performed by standard methods using fresh blood from healthy donors after collection in Vacutainer® collection tubes (BD, Plymouth, UK).8 Erythrocytes centrifuged (480 xg/5 min/4°C) and then washed in HBSS, and subsequently resuspended in this buffer. Incubation of the erythrocytes (15% hematocrit) in the absence or presence of the agents (10 μM) was performed for 3 h/37°C. The erythrocytes were […]

H2DCF = assay: Redox activity: H2DCF oxidation to DCF (cell-free, L-cysteine/H2O2); assay type: biochemical; details: for DCF fluorescence (H2DCF oxidation) of agent alone: 10 μM, pH 7.4 and pH 5, no added CuCl2; for DCF fluorescence (H2DCF oxidation) after addition of CuCl2: 10 μM complex + CuCl2, pH 7.4 and pH 5
Experimental: Redox activity in cells was examined using an established in vitro method examining 2′,7′-dichlorodihydrofluorescein (H2DCF) oxidation to fluorescent 2′,7′-dichlorofluorescein (DCF) at cytosolic pH (pH 7.4 using HBSS buffer) relative to lysosomal pH (pH 5; acetate buffer; Fig. 5).[25,26,28,42,46] To these buffers containing the complexes, L-cysteine (100 μM) was added as a reducing agent, followed by H2DCF (5 μM). Then, hydrogen peroxide (H2O2; 100 μM) was added to initiate hydroxyl radical generation. Both [Cu(DpC)Cl2] and [Cu(DpC)2] were used as positive controls due to their documented redox activity.[28,42] In contrast, the ligand, DpC, was implemented as a negative control, as it is redox inert.[28,42] As an additional control, the established Cu chelator, tetrathiomolybdate (TM), was utilized to remove Cu from the thiosemicarbazone complexes to indicate its role in their redox activity.[27,28,42] Additionally, UV-vis spectroscopy (300–700 nm) of the same solution for each complex was also performed to understand both the oxidation of H2DCF and the formation of fluorescent DCF upon excitation at 503 nm (Fig. S20A–F and S21A–F ^†). […]
ROS Generation Analysis with H 2DCF-DA
The generation of reactive oxygen species (ROS) was assessed by examining the oxidation of H2DCF.2, 8, 13, 14 Solutions containing CuCl2, TM, DpC, Dp4e4mT, [Fe(DpC)2]+, [Cu(DpC)Cl2], [Cu(DpC)2] and the Dp4e4mT complexes were prepared at a concentration of 10 µM in either HBSS (pH 7.4) or 150 mM acetate buffer (pH 5) to simulate the conditions of the cytosol and lysosome, respectively.2, 8, 14, 15 The H2DCF was prepared by deacetylation of DCFH-DA (Sigma-Aldrich) through alkaline hydrolysis using NaOH. 16
In these prepared solutions, L-cysteine (100 µM) was added as a reducing agent and then H2DCF (5 µM) added. The initiation of hydroxyl radical generation was achieved by the addition of hydrogen peroxide (H2O2; 100 µM). As a comparative benchmark, HBSS or acetate buffer containing L-cysteine, H2DCF, and H2O2, but lacking ligands or metal complexes, was employed as a control. Fluorescence measurements were carried out using a CLARIOstar Plus microplate reader (BMG LABTECH, Australia) with an excitation wavelength of 485 nm and an emission wavelength of 530 nm. 8, 14

[2] = Cyclic voltammetry (redox potentials); assay type: physicochemical; details: 1 mM in MeCN/H2O 7 : 3 (v/v) + 0.1 M Et4NClO4, sweep rate 100 mV s^−1
From the text: The redox potentials of Fe(III)- and Cu(II)-thiosemicarbazone complexes have been extensively studied and are important for understanding intracellular redox activity and ROS generation.[23,27,28,42] Considering this, the electrochemical properties of [Fe(Dp44mT)2]^+, [Fe(DpC)2]^+, [Fe(Dp4e4mT)2]^+, [Co(Dp4e4mT)2]^+, [Ni(Dp4e4mT)2], [Cu(Dp4e4mT)Cl], [Ga(Dp4e4mT)2]^+, and [Pd(Dp4e4mT)Cl] were investigated with cyclic voltammetry in MeCN : H2O (70 : 30 v/v; Fig. 4A and B). This solvent system was implemented to provide sufficient solubility and because it has been used by our laboratories previously to measure potentials of thiosemicarbazone complexes enabling effective comparison.[28,45,57–59]
Fig. 4 Cyclic voltammograms of: (A) [Fe(Dp44mT)2]^+, [Fe(DpC)2]^+, and [Fe(Dp4e4mT)2]^+. (B) [Co(Dp4e4mT)2]^+, [Ni(Dp4e4mT)2], [Cu(Dp4e4mT)Cl], [Ga(Dp4e4mT)2]^+, and [Pd(Dp4e4mT)Cl] (1 mM in MeCN/H2O 7 : 3 (v/v) + 0.1 M Et4NClO4) at a sweep rate of 100 mV s^−1. The voltammograms were recorded using a glassy carbon working electrode versus a […] (NHE). […]
Cyclic voltammograms were acquired for the Fe(III), Co(III), Ni(II), Cu(II), Ga(III), and Pd(II) complexes of Dp4e4mT utilizing a BAS100B/W potentiostat, equipped with an aqueous Ag/AgCl reference electrode, a glassy carbon working electrode, and a Pt wire auxiliary […]
electrode. […]

[3] = listed as Dp4e4mT Pd(II) complex

Row | SMILES | oxy-Hb oxidation to met-Hb in erythrocytes [1] | DCF fluorescence (H2DCF oxidation) of agent alone (H2DCF) | oxy-Hb oxidation in erythrocytes versus the control (in words) [1] | Redox potential (mV vs. NHE) [2] | DCF fluorescence (H2DCF oxidation) after addition of CuCl2 (H2DCF) | further results
1 | CCN(C)C(=S)NN=C(c1ccccn1)c1ccccn1 [Dp4e4mT, di-2-pyridylketone-4-ethyl-4-methyl-3-thiosemicarbazone] | 1.9 % of the total | did not significantly (p > 0.05) increase DCF fluorescence | – | – | – | –
2 | CN(C)C(=S)NN=C(c1ccccn1)c1ccccn1 [Dp44mT, di-2-pyridylketone 4,4-dimethyl-3-thiosemicarbazone, reference compound] | 2.3 % of the total | – | – | – | – | –
3 | CN(C(=S)NN=C(c1ccccn1)c1ccccn1)C1CCCCC1 [DpC, di-2-pyridylketone 4-cyclohexyl-4-methyl-3-thiosemicarbazone, reference compound] | – | did not significantly (p > 0.05) increase DCF fluorescence | did not induce any significant (p > 0.05) increase in oxy-Hb oxidation | – | – | –
4 | CCN(C)C([S-])=NN=C(c1ccccn1)c1ccccn1.CCN(C)C([S-])=NN=C(c1ccccn1)c1ccccn1.[Co+3] [[Co(Dp4e4mT)2]^+] | – | – | negligible effects on oxy-Hb oxidation | –642 mV vs. NHE | not significantly (p > 0.05) different to CuCl2 alone | oxy-Hb oxidation in erythrocytes versus the control (in words) ([1]; listed as Dp4e4mT Co(III) complex): no (p > 0.05) significant effect on oxy-Hb oxidation
5 | CCN(C)C([S-])=NN=C(c1ccccn1)c1ccccn1.[Cl-].[Cu+2] [[Cu(Dp4e4mT)Cl]] | – | greatest efficacy at increasing DCF fluorescence | negligible effects on oxy-Hb oxidation | −151 mV vs. NHE | – | Redox potential (mV vs. NHE) ([2]; listed as [Cu(Dp4e4mT)(Cl)]^±): –151 mV vs. NHE
6 | CCN(C)C([S-])=NN=C(c1ccccn1)c1ccccn1.CCN(C)C([S-])=NN=C(c1ccccn1)c1ccccn1.[Fe+3] [[Fe(Dp4e4mT)2]^+] | 4.8 % of the total | markedly and significantly (p < 0.0001) less redox active | – | +70 mV vs. NHE | markedly and significantly (p < 0.0001–0.001) increased DCF fluorescence | –
7 | CCN(C)C([S-])=NN=C(c1ccccn1)c1ccccn1.CCN(C)C([S-])=NN=C(c1ccccn1)c1ccccn1.[Ga+3] [[Ga(Dp4e4mT)2]^+] | 1.3 % of the total | – | slight effect | – | markedly and significantly (p < 0.0001–0.001) increased DCF fluorescence | Redox potential (mV vs. NHE) ([2]; listed as Dp4e4mT Ga(III) complex): −533 mV vs. NHE; Redox potential (mV vs. NHE) ([2]; listed as [Ga(Dp4e4mT)2]^+/0): –533 (irreversible) mV vs. NHE
8 | CCN(C)C([S-])=NN=C(c1ccccn1)c1ccccn1.CCN(C)C([S-])=NN=C(c1ccccn1)c1ccccn1.[Ni+2] [[Ni(Dp4e4mT)2]] | – | – | negligible effects on oxy-Hb oxidation | +647 mV vs. NHE | markedly and significantly (p < 0.0001–0.001) increased DCF fluorescence | oxy-Hb oxidation in erythrocytes versus the control (in words) ([1]; listed as Dp4e4mT Ni(II) complex): no (p > 0.05) significant effect on oxy-Hb oxidation
9 | CCN(C)C([S-])=NN=C(c1ccccn1)c1ccccn1.[Cl-].[Pd+2] [[Pd(Dp4e4mT)Cl]] | – | – | negligible effects on oxy-Hb oxidation | –626 (irreversible) mV vs. NHE | approximately half | Redox potential (mV vs. NHE) [2, 3]: −626 mV vs. NHE; oxy-Hb oxidation in erythrocytes versus the control (in words) [1, 3]: no (p > 0.05) significant effect on oxy-Hb oxidation
10 | CCN(C)C([S-])=NN=C(c1ccccn1)c1ccccn1.CCN(C)C([S-])=NN=C(c1ccccn1)c1ccccn1.[Zn+2] [[Zn(Dp4e4mT)2]] | – | – | negligible effects on oxy-Hb oxidation | – | markedly and significantly (p < 0.0001–0.001) increased DCF fluorescence | oxy-Hb oxidation in erythrocytes versus the control (in words) ([1]; listed as Dp4e4mT Zn(II) complex): no (p > 0.05) significant effect on oxy-Hb oxidation
